# Experimental data as given in PubChem BioAssay AID1963438 (Molecular Pharmacology Branch, DTP, NCI, 2024).
# Where “and” joins values, the source holds several entries; their conditions need not be identical. Equal entries are not always repeated.
# Test system: NCI-H510 multicellular tumor spheroid growth, % test/control
# Assay: Anticancer human tumor NCI-H510 cell line growth inhibition [Asc];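 further: spheroids exposed to agents for 7 days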;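 on viability, T/C: 100% = DMSO vehicle control wells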
# Conditions: for viability, T/C: stronger effect = lower value
# Method in brief: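 Concentration series start at each agent's clinical Cmax, or at 10 microM when none is established, and drop in half-log steps; agents are applied alone or together to complex spheroids built with HUVEC and hMSC.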
# [1] = curve of first compound, second compound 0.01 µM
# [2] = curve of first compound, second compound 0.0316 µM
# [3] = curve of first compound, second compound 0.1 µM
# [4] = curve of first compound, second compound 0.316 µM
# [5] = curve of first compound, second compound 1 µM
# [6] = second compound 0.01 µM, first compound 0.00316 µM
# [7] = second compound 0.01 µM, first compound 0.01 µM
# [8] = second compound 0.01 µM, first compound 0.0316 µM
# [9] = second compound 0.01 µM, first compound 0.1 µM
# [10] = second compound 0.01 µM, first compound 0.316 µM
# [11] = second compound 0.01 µM, first compound 1 µM
# [12] = second compound 0.0316 µM, first compound 0.00316 µM
# [13] = second compound 0.0316 µM, first compound 0.01 µM
# [14] = second compound 0.0316 µM, first compound 0.0316 µM
# [15] = second compound 0.0316 µM, first compound 0.1 µM
# [16] = second compound 0.0316 µM, first compound 0.316 µM
# [17] = second compound 0.0316 µM, first compound 1 µM
# [18] = second compound 0.1 µM, first compound 0.00316 µM
# [19] = second compound 0.1 µM, first compound 0.01 µM
# [20] = second compound 0.1 µM, first compound 0.0316 µM
# [21] = second compound 0.1 µM, first compound 0.1 µM
# [22] = second compound 0.1 µM, first compound 0.316 µM
# [23] = second compound 0.1 µM, first compound 1 µM
# [24] = second compound 0.316 µM, first compound 0.00316 µM
# [25] = second compound 0.316 µM, first compound 0.01 µM
# [26] = second compound 0.316 µM, first compound 0.0316 µM
# [27] = second compound 0.316 µM, first compound 0.1 µM
# [28] = second compound 0.316 µM, first compound 0.316 µM
# [29] = second compound 0.316 µM, first compound 1 µM
# [30] = second compound 1 µM, first compound 0.00316 µM
# [31] = second compound 1 µM, first compound 0.01 µM
# [32] = second compound 1 µM, first compound 0.0316 µM
# [33] = second compound 1 µM, first compound 0.1 µM
# [34] = second compound 1 µM, first compound 0.316 µM
# [35] = second compound 1 µM, first compound 1 µM
compound,measurement,setting,value
O=C(c1ccc(F)c(F)c1Nc1ccc(I)cc1F)N1CC(O)([C@@H]2CCCCN2)C1 + CNC(C)C(=O)NC1CN(S(=O)(=O)c2cccc(S(=O)(=O)N3CCC4CCC(C(=O)NC(c5ccccc5)c5ccccc5)N4C(=O)C(NC(=O)C(C)NC)C3)c2)CCC2CCC(C(=O)NC(c3ccccc3)c3ccccc3)N2C1=O,IC50,[1],> 1000 nM
same,IC50,[2],> 1000 nM
same,IC50,[3],> 1000 nM
same,IC50,[4],> 1000 nM
same,IC50,[5],> 1000 nM
same,"viability, T/C",[6],98.5%
same,"viability, T/C",[7],113%
same,"viability, T/C",[8],102%
same,"viability, T/C",[9],101%
same,"viability, T/C",[10],102%
same,"viability, T/C",[11],79.6%
same,"viability, T/C",[12],94.7%
same,"viability, T/C",[13],103%
same,"viability, T/C",[14],88%
same,"viability, T/C",[15],102%
same,"viability, T/C",[16],100%
same,"viability, T/C",[17],90.3%
same,"viability, T/C",[18],112%
same,"viability, T/C",[19],95.2%
same,"viability, T/C",[20],104%
same,"viability, T/C",[21],97.2%
same,"viability, T/C",[22],92.1%
same,"viability, T/C",[23],101%
same,"viability, T/C",[24],102%
same,"viability, T/C",[25],101%
same,"viability, T/C",[26],104%
same,"viability, T/C",[27],105%
same,"viability, T/C",[28],100%
same,"viability, T/C",[29],108%
same,"viability, T/C",[30],109%
same,"viability, T/C",[31],111%
same,"viability, T/C",[32],101%
same,"viability, T/C",[33],90.2%
same,"viability, T/C",[34],99.7%
same,"viability, T/C",[35],84.7%
Cn1ncnc1[C@H]1c2n[nH]c(=O)c3cc(F)cc(c23)N[C@@H]1c1ccc(F)cc1 + CNC(C)C(=O)NC1CN(S(=O)(=O)c2cccc(S(=O)(=O)N3CCC4CCC(C(=O)NC(c5ccccc5)c5ccccc5)N4C(=O)C(NC(=O)C(C)NC)C3)c2)CCC2CCC(C(=O)NC(c3ccccc3)c3ccccc3)N2C1=O,IC50,[1],> 100 nM
same,IC50,[2],> 100 nM
same,IC50,[3],> 100 nM
same,IC50,[4],> 100 nM
same,IC50,[5],> 100 nM
same,"viability, T/C","second compound 0.01 µM, first compound 0.000316 µM",102%
same,"viability, T/C","second compound 0.01 µM, first compound 0.001 µM",101%
same,"viability, T/C",[6],105%
same,"viability, T/C",[7],104%
same,"viability, T/C",[8],72.2%
same,"viability, T/C",[9],85.8%
same,"viability, T/C","second compound 0.0316 µM, first compound 0.000316 µM",96%
same,"viability, T/C","second compound 0.0316 µM, first compound 0.001 µM",102%
same,"viability, T/C",[12],97%
same,"viability, T/C",[13],97.2%
same,"viability, T/C",[14],78%
same,"viability, T/C",[15],98.4%
same,"viability, T/C","second compound 0.1 µM, first compound 0.000316 µM",110%
same,"viability, T/C","second compound 0.1 µM, first compound 0.001 µM",97%
same,"viability, T/C",[18],104%
same,"viability, T/C",[19],98.2%
same,"viability, T/C",[20],72.1%
same,"viability, T/C",[21],91.4%
same,"viability, T/C","second compound 0.316 µM, first compound 0.000316 µM",113%
same,"viability, T/C","second compound 0.316 µM, first compound 0.001 µM",108%
same,"viability, T/C",[24],96.6%
same,"viability, T/C",[25],96%
same,"viability, T/C",[26],56.8%
same,"viability, T/C",[27],93.6%
same,"viability, T/C","second compound 1 µM, first compound 0.000316 µM",110%
same,"viability, T/C","second compound 1 µM, first compound 0.001 µM",106%
same,"viability, T/C",[30],106%
same,"viability, T/C",[31],97.5%
same,"viability, T/C",[32],92.3%
same,"viability, T/C",[33],91.1%
NC(=O)C(=Cn1cnc(-c2cc(C(F)(F)F)cc(C(F)(F)F)c2)n1)c1cncnc1 + CCN1C(C(=O)NC23CCC(C(=O)O)(CC2)CC3)C(c2cccc(Cl)c2F)C2(C(=O)Nc3cc(Cl)ccc32)C12CCCCC2,IC50,"curve of first compound, second compound 0.03 µM",165 nM
same,IC50,"curve of first compound, second compound 0.0949 µM",183 nM
same,IC50,"curve of first compound, second compound 0.3 µM",138 nM
same,IC50,"curve of first compound, second compound 0.949 µM",180 nM
same,IC50,"curve of first compound, second compound 3 µM",54.3 nM
same,"viability, T/C","second compound 0.03 µM, first compound 0.000949 µM",113%
same,"viability, T/C","second compound 0.03 µM, first compound 0.003 µM",89.3%
same,"viability, T/C","second compound 0.03 µM, first compound 0.00949 µM",84.8%
same,"viability, T/C","second compound 0.03 µM, first compound 0.03 µM",106%
same,"viability, T/C","second compound 0.03 µM, first compound 0.0949 µM",56.9%
same,"viability, T/C","second compound 0.03 µM, first compound 0.3 µM",42.4%
same,"viability, T/C","second compound 0.0949 µM, first compound 0.000949 µM",88.4%
same,"viability, T/C","second compound 0.0949 µM, first compound 0.003 µM",121%
same,"viability, T/C","second compound 0.0949 µM, first compound 0.00949 µM",89.2%
same,"viability, T/C","second compound 0.0949 µM, first compound 0.03 µM",95.1%
same,"viability, T/C","second compound 0.0949 µM, first compound 0.0949 µM",65%
same,"viability, T/C","second compound 0.0949 µM, first compound 0.3 µM",38.6%
same,"viability, T/C","second compound 0.3 µM, first compound 0.000949 µM",80.7%
same,"viability, T/C","second compound 0.3 µM, first compound 0.003 µM",94.9%
same,"viability, T/C","second compound 0.3 µM, first compound 0.00949 µM",93.9%
same,"viability, T/C","second compound 0.3 µM, first compound 0.03 µM",87.3%
same,"viability, T/C","second compound 0.3 µM, first compound 0.0949 µM",58.4%
same,"viability, T/C","second compound 0.3 µM, first compound 0.3 µM",32.4%
same,"viability, T/C","second compound 0.949 µM, first compound 0.000949 µM",106%
same,"viability, T/C","second compound 0.949 µM, first compound 0.003 µM",87.1%
same,"viability, T/C","second compound 0.949 µM, first compound 0.00949 µM",99.3%
same,"viability, T/C","second compound 0.949 µM, first compound 0.03 µM",79.9%
same,"viability, T/C","second compound 0.949 µM, first compound 0.0949 µM",93.5%
same,"viability, T/C","second compound 0.949 µM, first compound 0.3 µM",15.3%
same,"viability, T/C","second compound 3 µM, first compound 0.000949 µM",90.1%
same,"viability, T/C","second compound 3 µM, first compound 0.003 µM",106%
same,"viability, T/C","second compound 3 µM, first compound 0.00949 µM",108%
same,"viability, T/C","second compound 3 µM, first compound 0.03 µM",84%
same,"viability, T/C","second compound 3 µM, first compound 0.0949 µM",18.3%
same,"viability, T/C","second compound 3 µM, first compound 0.3 µM",14.9%
CCN1CCN(Cc2ccc(Nc3ncc(F)c(-c4cc(F)c5nc(C)n(C(C)C)c5c4)n3)nc2)CC1 + CNC(C)C(=O)NC1CN(S(=O)(=O)c2cccc(S(=O)(=O)N3CCC4CCC(C(=O)NC(c5ccccc5)c5ccccc5)N4C(=O)C(NC(=O)C(C)NC)C3)c2)CCC2CCC(C(=O)NC(c3ccccc3)c3ccccc3)N2C1=O,IC50,[1],> 1000 nM
same,IC50,[2],> 1000 nM
same,IC50,[3],> 1000 nM
same,IC50,[4],> 1000 nM
same,IC50,[5],> 1000 nM
same,"viability, T/C",[6],109%
same,"viability, T/C",[7],117%
same,"viability, T/C",[8],124%
same,"viability, T/C",[9],112%
same,"viability, T/C",[10],150%
same,"viability, T/C",[11],128%
same,"viability, T/C",[12],108%
same,"viability, T/C",[13],94%
same,"viability, T/C",[14],114%
same,"viability, T/C",[15],113%
same,"viability, T/C",[16],117%
same,"viability, T/C",[17],136%
same,"viability, T/C",[18],113%
same,"viability, T/C",[19],95.5%
same,"viability, T/C",[20],99.3%
same,"viability, T/C",[21],108%
same,"viability, T/C",[22],108%
same,"viability, T/C",[23],117%
same,"viability, T/C",[24],114%
same,"viability, T/C",[25],117%
same,"viability, T/C",[26],110%
same,"viability, T/C",[27],115%
same,"viability, T/C",[28],107%
same,"viability, T/C",[29],128%
same,"viability, T/C",[30],111%
same,"viability, T/C",[31],112%
same,"viability, T/C",[32],107%
same,"viability, T/C",[33],115%
same,"viability, T/C",[34],123%
same,"viability, T/C",[35],127%
C=CC(=O)N1CCN(c2nc(=O)n(-c3c(C)ccnc3C(C)C)c3nc(-c4c(O)cccc4F)c(F)cc23)C(C)C1 (centres undefined),"viability, T/C",compound 0.0316 µM,101% and 89.6% and 100%
same,"viability, T/C",compound 0.1 µM,100% and 95.4% and 104%
same,"viability, T/C",compound 0.316 µM,105% and 90.3% and 98.7%
same,"viability, T/C",compound 1 µM,94.5% and 82.8% and 106%
same,"viability, T/C",compound 3.16 µM,108% (2×) and 100%
same,"viability, T/C",compound 10 µM,96.6% and 75.9% and 110%
same,IC50,curve of compound,> 10000 nM
NC1CCC(NC2CC2c2ccccc2)CC1 (centres undefined),"viability, T/C",compound 0.000316 µM,67.7% and 77.1% and 95.6%
same,"viability, T/C",compound 0.001 µM,69.7% and 75.9% and 98.6%
same,"viability, T/C",compound 0.00316 µM,79.1% and 83% and 96.4%
same,"viability, T/C",compound 0.01 µM,69.3% and 84.8% and 101%
same,"viability, T/C",compound 0.0316 µM,89.1% and 83.1% and 91.1%
same,"viability, T/C",compound 0.1 µM,65% and 77.7% and 93%
same,IC50,curve of compound,> 100 nM
